# In publication PMC4911292 (Clinical cancer research : an official journal of the …, 2016):
# Key:
# [1] = system: patients with recurrent and/or metastatic TNBC and/or BRCA mutation-associated breast cancer
# P-glycoprotein (P-gp) = details: cited from earlier work
# [2] = Veliparib pharmacokinetics in plasma and urine; type: in vivo, human
# PARP = details: at lower doses; cited from earlier work
# [3] = system: advanced triple-negative breast cancer and/or BRCA mutation-associated breast cancer; test: Preliminary efficacy; type: in vivo, human; details: veliparib with cisplatin and vinorelbine
# [4] = system: germline BRCA mutation-associated cancer; details: monotherapy throughout a 28-day cycle; cited from earlier work
# CYP enzymes = details: cited from earlier work
# [5] = cited from earlier work
# [6] = system: pretreated metastatic breast cancer; details: single agent; cited from earlier work
# [7] = set-up: species or system human; details: in vivo
# [8] = N=50, veliparib with cisplatin and vinorelbine, any time during study
# [9] = veliparib monotherapy, 23 patients
# [10] = veliparib with cisplatin and vinorelbine, N=50
# [11] = germline BRCA1 and BRCA2 wild-type, n=26
# [12] = germline BRCA1 or BRCA2 mutation positive, n=14
compound,measurement,setting,value
C[C@]1(c2nc3c(C(N)=O)cccc3[nH]2)CCCN1 [veliparib],Dose limiting toxicity,"[1]; 40 mg dose level, with cisplatin and vinorelbine, one patient, bone marrow involvement of breast cancer",grade 4 thrombocytopenia
same,"Anemia, All grades",[1]; [8],32 (64%) N (%)
same,"Anorexia, All grades",[1]; [8],17 (34%) N (%)
same,"Dehydration, All grades",[1]; [8],17 (34%) N (%)
same,"Dyspepsia, All grades",[1]; [8],11 (22%) N (%)
same,"Fatigue, All grades",[1]; [8],40 (80%) N (%)
same,"Hypokalemia, All grades",[1]; [8],13 (26%) N (%)
same,"Nausea, All grades",[1]; [8],43 (86%) N (%)
same,"Neutrophil count decreased, All grades",[1]; [8],31 (62%) N (%)
same,"Peripheral sensory neuropathy, All grades",[1]; [8],21 (42%) N (%)
same,"Platelet count decreased, All grades",[1]; [8],33 (66%) N (%)
same,"Tinnitus, All grades",[1]; [8],26 (52%) N (%)
same,"Vomiting, All grades",[1]; [8],21 (42%) N (%)
same,Recommended phase II dose (RP2D),[1]; in combination with cisplatin and vinorelbine,300 mg BID
same,Patients reporting AEs on monotherapy,[1]; veliparib monotherapy,Six of 23
same,"Dyspepsia, any grade",[1]; [9],17%
same,"Nausea, any grade",[1]; [9],17%
same,"Vomiting, any grade",[1]; [9],17%
same,Grade 3/4 anemia,[1]; [10],30%
same,Grade 3/4 neutropenia,[1]; [10],36%
same,Grade 3/4 thrombocytopenia,[1]; [10],12%
same,Inhibition or induction of P-gp,P-glycoprotein (P-gp),does not appear to inhibit or induce P-gp
same,P-gp substrate status,P-glycoprotein (P-gp),weak P-glycoprotein (P-gp) substrate
same,Proportion of the first dose excreted in the urine over 12 hours (median),"[2]; cycle 1, N=20",61.7%
same,Proportion of the first dose excreted in the urine over 12 hours (median),"[2]; cycle 4, N=20",66.7%
same,Median C4/C1 ratio of Cmax,"[2]; cycle 4 day 1 vs cycle 1 day 0, N=32, range 0.36-2.00",0.85
same,Median C4/C1 ratio of AUC0-6,"[2]; cycle 4 day 1 vs cycle 1 day 0, N=32, range 0.44-1.64",0.82
same,PARP inhibition by PAR assay,PARP,90%
same,Best overall response: complete response,[3]; 48 patients,4%
same,Progressive disease as best response or not assessed due to disease or toxicity,[3]; 48 patients,21%
same,Stable disease as best response,[3]; 48 patients,44%
same,"Overall response rate (CR+PR, confirmed)","[3]; 48 patients, 95% CI 23%-50%",35%
same,Response (CR+PR),[3]; BRCA mutation present,57%
same,Median progression-free survival,"[3]; all 50 patients, 95% CI 4.1-6.7",5.5 months
same,Median overall survival,"[3]; all patients, 95% CI 8.1-20.7",9.6 months
same,Best overall response: Complete response (CR),[3]; [11],1 (4%) n(%)
same,Best overall response: Partial response (PR),[3]; [11],7 (27%) n(%)
same,Best overall response: Progressive disease (PD),[3]; [11],6 (23%) n(%)
same,Best overall response: Complete response (CR),[3]; [12],1 (7%) n(%)
same,Best overall response: Partial response (PR),[3]; [12],7 (50%) n(%)
same,Best overall response: Progressive disease (PD),[3]; [12],1 (7%) n(%)
same,Clinical benefit (PFS6) rate,[3]; [12],10 (71%) n(%)
same,Median OS,[3]; germline BRCA mutation,22.6 months
same,Median PFS,[3]; germline BRCA mutation,9.2 months
same,6-month progression-free survival (PFS6),[3]; germline BRCA mutation absent,30%
same,6-month progression-free survival (PFS6),[3]; germline BRCA mutation present,71%
same,Median PFS,[3]; germline BRCA wild-type,4.2 months
same,Best overall response: Complete response (CR),"[3]; total, n=48",2 (4%) n(%)
same,Best overall response: Partial response (PR),"[3]; total, n=48",15 (31%) n(%)
same,Best overall response: Progressive disease (PD),"[3]; total, n=48",10 (21%) n(%)
same,Best overall response: Partial response (PR),"[3]; unknown mutation status, n=8",1(12%) n(%)
same,Best overall response: Progressive disease (PD),"[3]; unknown mutation status, n=8",3 (38%) n(%)
same,Clinical benefit (PFS6) rate,"[3]; unknown mutation status, n=8",2 (25%) n(%)
same,Median OS,[3]; unknown mutational status,6.2 months
same,Median PFS,[3]; unknown mutational status,4.0 months
same,Current RP2D as monotherapy,[4],400 mg BID
same,Inhibition or induction of major CYP enzymes,CYP enzymes,does not appear to inhibit or induce the activity of major CYP enzymes
same,Share of oral clearance accounted for by CYP2D6,CYP enzymes,~ 18%
same,Share of oral clearance accounted for by additional liver metabolism,CYP enzymes,10%
CCC1=C[C@@H]2CN(C1)Cc1c([nH]c3ccccc13)[C@@](C(=O)OC)(c1cc3c(cc1OC)N(C)[C@H]1[C@@](O)(C(=O)OC)[C@H](OC(C)=O)[C@]4(CC)C=CCN5CC[C@]31[C@@H]54)C2 [vinorelbine],"Renal excretion, share of the administered dose",[5],approximately 10%
N.N.[Cl][Pt][Cl] [cisplatin],Response rate,[6],less than 10%
same,Median C4/C1 ratio for ultrafilterable platinum AUC0-24,[7],0.98
same,Median C4/C1 ratio for ultrafilterable platinum Cmax,[7],0.99
